From PubChem BioAssay (NCI)
Values joined by “and” are separate entries in the source; they are usually repeats but may differ in a detail not shown here. Equal values may be shown once.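 1) Cells in 96-well plates. 2) Compound, 48 h, 5 concentrations. 3) Linear interpolation between surrounding doses. 4) Unreached endpoint = highest concentration. Abbreviation: GI50, concentration required for 50% inhibition of growth. TGI marks complete inhibition of growth.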

Assays:
Experiment in all cases: growth of human tumour cells (NCI), 48 h
[1] = system: ACHN renal
[2] = system: BT-549 breast
[3] = system: HL-60(TB) leukemia
[4] = system: MOLT-4 leukemia
[5] = system: NCI-H460 lung
[6] = system: OVCAR-8 ovarian
[7] = system: PC-3 prostate
[8] = system: RPMI-8226 leukemia
[9] = system: SK-OV-3 ovarian
[10] = system: UO-31 renal

SMILES | TGI [1] [µM] | TGI [2] [µM] | TGI [3] | TGI [4] [µM] | TGI [5] [µM] | TGI [6] [µM] | TGI [7] [µM] | TGI [8] [µM] | TGI [9] [µM] | TGI [10] | GI50 [4] | GI50 [6] | GI50 [7] | GI50 [8] | GI50 [9] | GI50 [10]
COc1ccc(N=C2C(=Nc3ccc(OC)cc3)N(c3ccc(N(C)C)cc3)C(=S)N2c2ccc(OC)cc2)cc1 | > 100 | > 100 | > 100 µM | > 100 | > 100 | > 52 | > 100 | > 100 | > 100 | > 100 µM |  |  |  |  |  | 
CC(=O)NC1(C(=O)N[C@@H](Cc2ccccc2)C(=O)NC2CCCCC2)Cc2ccc3ccccc3c2-c2c(ccc3ccccc23)C1 | > 100 | > 100 | 26.2 µM and 27.4 µM |  | > 100 | > 100 | > 100 | > 100 | > 100 | 22.9 µM and 45.9 µM | 1.91 µM and 4.43 µM | 8.67 µM and 33.2 µM | 2.87 µM and 6.4 µM | 3.31 µM and 13.9 µM | 27.6 µM and > 100 µM | 2.8 µM and 11.8 µM
COc1ccc(C2SCC(=O)N2NC(=O)C(C)Oc2ccccc2C)cc1 (stereo not given) | > 100 | > 100 | 61.2 µM | 87.9 | > 100 | > 100 | > 100 | > 100 | > 100 | > 100 µM |  |  |  |  |  | 
O=C(O)CNC(=O)c1ccc2cc(C(=O)N3CC(CCl)c4ccc([N+](=O)[O-])cc43)[nH]c2c1 (stereo not given) | > 100 | > 100 | > 100 µM | > 100 | > 100 | > 100 | > 100 | > 100 | > 100 | > 100 µM |  |  |  |  |  | 
COC(=O)NC(Cc1ccccc1)NC(C)=O (stereo not given) | > 100 | > 100 | > 100 µM | > 100 | > 100 | > 100 | > 100 | > 100 | > 100 | > 100 µM |  |  |  |  |  | 
O=C1CS[C@@](CC(c2ccc(Cl)cc2)c2ccc(Cl)cc2)(c2ccc(Cl)cc2)N1 | 89.4 | > 100 | 28.4 µM | 45 | > 100 | > 100 | 65.5 | 35.6 | > 100 | > 100 µM |  |  |  |  |  | 
CC12ON(P(=O)(c3ccccc3)c3ccccc3)C(C)(c3ccccc31)c1ccccc12 | > 100 | > 100 | > 100 µM | > 100 | > 100 | > 100 | > 100 | > 100 | > 100 | > 100 µM |  |  |  |  |  | 
O=[N+]([O-])c1ccc(O)c(/C=N/c2nc(-c3ccccc3)cs2)c1 | > 100 | 46.4 | > 100 µM | 43.3 | > 86.7 | 68.4 | > 100 | 30.9 | 89.5 | > 86.4 µM |  |  |  |  |  | 
CC12CCC(C(=Nc3cc(C(F)(F)F)cc(C(F)(F)F)c3)C1=O)C2(C)C (stereo not given) | > 100 | > 100 | 23.8 µM | 44.2 | > 100 | > 100 | > 100 | 44.7 | > 100 | > 100 µM |  |  |  |  |  | 
Cc1cc2oc(C)c(S(=O)(=O)NC(=O)Nc3ccc(Cl)cc3)c(=O)c2c(=O)o1 | > 100 | > 100 | > 100 µM | > 100 | > 100 | > 100 | > 100 | > 100 | > 100 | > 100 µM |  |  |  |  |  | 
COC(=O)c1cccc(OC)c1C#Cc1c(OC)cccc1OC | > 100 | > 100 | > 100 µM | > 100 | > 100 | > 100 | > 100 | > 100 | > 100 | > 100 µM |  |  |  |  |  | 
O=[N+]([O-])c1cccc(Cl)c1Oc1ccc(S(=O)(=O)/N=C(\NO)Nc2ccc(Cl)cc2)cc1 | 27.5 | 29.9 | 16.5 µM | 19.3 | 29.3 | 39.6 | 24.2 | 27.8 | 31.8 | 23.7 µM |  |  |  |  |  | 
CC(=O)N(C(C)=O)n1c(Cc2ccc(C)cc2)nn(C(C)=O)c1=O | > 100 | > 100 | > 100 µM | > 100 | > 100 | > 100 | > 100 | > 100 | > 100 | > 100 µM |  |  |  |  |  | 
Cc1ccc(S(=O)(=O)N/N=C2/CCC(C(C)(C)C)CC2Br)cc1 (stereo not given) | > 100 | 75.1 | > 100 µM | 49.3 | > 100 | > 100 | 86.5 | 82.3 | > 100 | 33.4 µM |  |  |  |  |  | 
